Source: patent US20220324835A1 (Nurix Therapeutics, Inc., priority 2018, published 2022)
pIC50, pKd: −log10 of the molar value. Counter-ions that a name gives are not always drawn.

What was measured:
T-cell = test: CD25 cell surface staining on T-cells co-stimulated with anti-CD3 and anti-CD28 antibody (Biological Example 2); type: cell-based, human; conditions: Homo sapiens, T-cell, fold change over baseline, primary human total T-cells, read-out: CD25 staining Anti-CD3/Anti-CD28 stimulation; for fold induction at 0.3 µM: 0.3 μM Cbl-b inhibitor; for fold induction at 1 µM: 1 μM Cbl-b inhibitor; for fold induction at 4 µM: 4 μM Cbl-b inhibitor
How it was run: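 No assay protocol given; T-cells stimulated with anti-CD3 alone or anti-CD3 plus anti-CD28, with or without Cbl-b inhibitor. Activation read as IL-2 secretion or CD25 surface staining, expressed as fold over baseline from uninhibited cells […].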

Cbl-b = Cbl-b (Homo sapiens, UniProt Q13191); test: Cbl-b activity assay (Cbl-b inhibition assay), TR-FRET of Cbl-b interaction with UbcH5B-Ub; type: biochemical; conditions: assay buffer with 100 mM NaCl, 60 nM Src kinase; read-out: Cbl-b activity IC50
How it was run: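 TR-FRET readout of Cbl-b binding to Bodipy-fluorescein N-terminally labeled Ub conjugated to UbcH5B C85K, measured with compound present. After compound incubation, 60 nM Src kinase with 1 mM ATP and 5 mM MgCl2 (final) was added for 1.5 h, then a further 1 h incubation; asterisked values used 50 mM NaCl buffer and 30 nM Src.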

Cbl-b (residues 36-427) = Cbl-b (residues 36-427) (Homo sapiens, UniProt Q13191); test: Cbl-b binding assay (SPR, Biacore T200); conditions: 20° C., 1:1 binding model
How it was run: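 Affinities derived from global 1:1 steady-state or kinetic fits of double-referenced, solvent-corrected SPR data, 20 °C, NeutrAvidin-capture chip. Compound series (top 100 or 50 μM, 8–10 points) injected 50 s, 90–180 s dissociation. Asterisked values used 50 mM instead of 100 mM NaCl and 30 nM Src kinase.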

Chain of Cbl-b (residues 36-427) (Q13191 36-427): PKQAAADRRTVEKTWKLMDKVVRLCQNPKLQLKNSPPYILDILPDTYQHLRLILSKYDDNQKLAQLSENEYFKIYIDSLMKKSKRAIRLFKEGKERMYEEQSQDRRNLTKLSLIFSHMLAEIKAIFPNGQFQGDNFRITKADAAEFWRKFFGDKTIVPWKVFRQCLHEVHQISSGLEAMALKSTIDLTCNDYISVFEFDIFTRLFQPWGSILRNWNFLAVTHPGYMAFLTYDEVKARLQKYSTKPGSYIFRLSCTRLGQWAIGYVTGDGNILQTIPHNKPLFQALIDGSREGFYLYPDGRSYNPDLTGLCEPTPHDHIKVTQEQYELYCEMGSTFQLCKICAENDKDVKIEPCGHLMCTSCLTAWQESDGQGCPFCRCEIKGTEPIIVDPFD
Chain of Cbl-b (Q13191 36-427): as above

Compound: C[C@H](Cc1nncn1C)c1cccc(NC(=O)c2ccc(CO)c(C3CC3)n2)c1 [Compound 203, 6-cyclopropyl-5-(hydroxymethyl)-N-[3-[(2R)-1-(4-methyl-4H-1,2,4-triazol-3-yl)propan-2-yl]phenyl]pyridine-2-carboxamide]
- fold induction at 0.3 µM (T-cell): 1.31 to 1.5
- fold induction at 1 µM (T-cell): 1.51 to 1.75
- fold induction at 4 µM (T-cell): 1.51 to 1.75
- pIC50 (Cbl-b): > 7.00
- pKd (Cbl-b (residues 36-427)): > 7.00

Compound: CC(=O)N1CCN(c2ccc3cnc(C(=O)Nc4cccc([C@H](C)Cc5nncn5C)c4)cc3c2)CC1 [Compound 211, (R)-6-(4-acetylpiperazin-1-yl)-N-(3-(1-(4-methyl-4H-1,2,4-triazol-3-yl)propan-2-yl)phenyl)isoquinoline-3-carboxamide 2,2,2-trifluoroacetate]
- fold induction at 0.3 µM (T-cell): 1.01 to 1.3
- fold induction at 1 µM (T-cell): 1.01 to 1.3
- fold induction at 4 µM (T-cell): 1.51 to 1.75
- pIC50 (Cbl-b): > 7.00
- pKd (Cbl-b (residues 36-427)): 6.52 to 7.00

Compound: C[C@H](Cc1nncn1C)c1cccc(NC(=O)c2cc(C(=O)N3CC[C@H](O)C3)cc(C(F)(F)F)n2)c1 [Compound 220, 4-((S)-3-hydroxypyrrolidine-1-carbonyl)-N-(3-((R)-1-(4-methyl-4H-1,2,4-triazol-3-yl)propan-2-yl)phenyl)-6-(trifluoromethyl)picolinamide]
- fold induction at 0.3 µM (T-cell): 1.31 to 1.5
- fold induction at 1 µM (T-cell): 1.51 to 1.75
- fold induction at 4 µM (T-cell): > 1.76
- pIC50 (Cbl-b): > 7.00
- pKd (Cbl-b (residues 36-427)): > 7.00

Compound: C[C@H](Cc1nncn1C)c1cccc(N2Cc3c(cc(C(=O)N4CC[C@H](O)C4)cc3C(F)(F)F)C2=O)c1 [Compound 274, 6-((S)-3-hydroxypyrrolidine-1-carbonyl)-2-(3-((R)-1-(4-methyl-4H-1,2,4-triazol-3-yl)propan-2-yl)phenyl)-4-(trifluoromethyl)isoindolin-1-one]
- fold induction at 0.3 µM (T-cell): 1.01 to 1.3
- fold induction at 1 µM (T-cell): 1.01 to 1.3
- fold induction at 4 µM (T-cell): 1.31 to 1.5
- pIC50 (Cbl-b): > 7.00
- pKd (Cbl-b (residues 36-427)): > 7.00

Compound: C[C@H](Cc1nncn1C)c1cccc(N2Cc3c(cc(C(=O)N4C[C@@H](O)C[C@H]4C)cc3C(F)(F)F)C2=O)c1 [Compound 275, 6-((2R,4S)-4-hydroxy-2-methylpyrrolidine-1-carbonyl)-2-(3-((R)-1-(4-methyl-4H-1,2,4-triazol-3-yl)propan-2-yl)phenyl)-4-(trifluoromethyl)isoindolin-1-one]
- fold induction at 0.3 µM (T-cell): 1.31 to 1.5
- fold induction at 1 µM (T-cell): 1.51 to 1.75
- fold induction at 4 µM (T-cell): > 1.76
- pIC50 (Cbl-b): > 7.00
- pKd (Cbl-b (residues 36-427)): > 7.00

Compound: C[C@H](Cc1nncn1C)c1cccc(N2Cc3c(cc(C(=O)N4CC(O)C4)cc3C(F)(F)F)C2=O)c1 [Compound 276, (R)-6-(3-hydroxyazetidine-1-carbonyl)-2-(3-(1-(4-methyl-4H-1,2,4-triazol-3-yl)propan-2-yl)phenyl)-4-(trifluoromethyl)isoindolin-1-one]
- fold induction at 0.3 µM (T-cell): 1.01 to 1.3
- fold induction at 1 µM (T-cell): 1.01 to 1.3
- fold induction at 4 µM (T-cell): 1.31 to 1.5
- pIC50 (Cbl-b): > 7.00
- pKd (Cbl-b (residues 36-427)): 6.00 to 6.52

Compound: C[C@H](Cc1nncn1C)c1cccc(N2Cc3c(cc(C(=O)N4CC[C@H](O)C4)cc3C3CC3)C2=O)c1 [Compound 277, 4-cyclopropyl-6-((S)-3-hydroxypyrrolidine-1-carbonyl)-2-(3-((R)-1-(4-methyl-4H-1,2,4-triazol-3-yl)propan-2-yl)phenyl)isoindolin-1-one]
- fold induction at 0.3 µM (T-cell): 1.01 to 1.3
- fold induction at 1 µM (T-cell): 1.01 to 1.3
- fold induction at 4 µM (T-cell): 1.31 to 1.5
- pIC50 (Cbl-b): > 7.00
- pKd (Cbl-b (residues 36-427)): 6.52 to 7.00

Compound: Cn1cnnc1CC1(c2cccc(N3Cc4c(cccc4C(F)(F)F)C3=O)c2)CC1 [Compound 299, 2-(3-(1-((4-methyl-4H-1,2,4-triazol-3-yl)methyl)cyclopropyl)phenyl)-4-(trifluoromethyl)isoindolin-1-one]
- fold induction at 0.3 µM (T-cell): < 1
- fold induction at 1 µM (T-cell): 1.01 to 1.3
- fold induction at 4 µM (T-cell): 1.01 to 1.3
- pIC50 (Cbl-b): > 7.00
- pKd (Cbl-b (residues 36-427)): 5.52 to 6.00

Compound: Cn1cnnc1CC(C)(C)c1cccc(N2Cc3c(cccc3C(F)(F)F)C2=O)c1 [Compound 300, 2-(3-(2-methyl-1-(4-methyl-4H-1,2,4-triazol-3-yl)propan-2-yl)phenyl)-4-(trifluoromethyl)isoindolin-1-one]
- fold induction at 0.3 µM (T-cell): 1.01 to 1.3
- fold induction at 1 µM (T-cell): 1.01 to 1.3
- fold induction at 4 µM (T-cell): 1.51 to 1.75
- pIC50 (Cbl-b): > 7.00
- pKd (Cbl-b (residues 36-427)): 6.52 to 7.00

Compound: Cn1cnnc1CC1(c2cccc(N3Cc4c(cccc4C(F)(F)F)C3=O)c2)COC1 [Compound 301, 2-[3-[3-[(4-methyl-1,2,4-triazol-3-yl)methyl]oxetan-3-yl]phenyl]-4-(trifluoromethyl)isoindolin-1-one]
- fold induction at 0.3 µM (T-cell): 1.01 to 1.3
- fold induction at 1 µM (T-cell): 1.01 to 1.3
- fold induction at 4 µM (T-cell): 1.31 to 1.5
- pIC50 (Cbl-b): > 7.00
- pKd (Cbl-b (residues 36-427)): 6.00 to 6.52

Compound: C[C@H](Sc1nncn1C)c1cccc(NC(=O)c2cc3cc(OCC(=O)NCCN)ccc3cn2)c1 [Compound 311, 6-[2-(2-aminoethylamino)-2-oxo-ethoxy]-N-[3-[(1S)-1-[(4-methyl-1,2,4-triazol-3-yl)sulfanyl]ethyl]phenyl]isoquinoline-3-carboxamide hydrochloride]
- fold induction at 0.3 µM (T-cell): < 1
- fold induction at 1 µM (T-cell): < 1
- fold induction at 4 µM (T-cell): 1.01 to 1.3
- pIC50 (Cbl-b): 6.52 to 7.00
- pKd (Cbl-b (residues 36-427)): 6.52 to 7.00

Compound: Cc1cnnn1C[C@@H](C)c1cccc(NC(=O)c2cccc(C(F)(F)F)n2)c1 [Compound 312a, (S)-N-(3-(1-(5-methyl-1H-1,2,3-triazol-1-yl)propan-2-yl)phenyl)-6-(trifluoromethyl)picolinamide]
- fold induction at 0.3 µM (T-cell): < 1
- fold induction at 1 µM (T-cell): 1.01 to 1.3
- fold induction at 4 µM (T-cell): 1.01 to 1.3
- pIC50 (Cbl-b): 6.52 to 7.00
- pKd (Cbl-b (residues 36-427)): 6.00 to 6.52

Compound: C[C@H](Cc1nncn1C)c1cccc(NC(=O)c2nc3c(C4CC4)cccc3[nH]2)c1 [Compound 319, 4-cyclopropyl-N-[3-[(1R)-1-methyl-2-(4-methyl-1,2,4-triazol-3-yl)ethyl]phenyl]-1H-benzimidazole-2-carboxamide]
- fold induction at 0.3 µM (T-cell): 1.01 to 1.3
- fold induction at 1 µM (T-cell): 1.01 to 1.3
- fold induction at 4 µM (T-cell): 1.01 to 1.3
- pIC50 (Cbl-b): 6.52 to 7.00
- pKd (Cbl-b (residues 36-427)): 6.52 to 7.00

Compound: C[C@H](Cc1nncn1C)c1cccc(NC(=O)c2cc(C(C)(C)O)cc(C(F)(F)F)n2)c1 [Compound 320, 4-(2-hydroxypropan-2-yl)-N-[3-[(2R)-1-(4-methyl-4H-1,2,4-triazol-3-yl)propan-2-yl]phenyl]-6-(trifluoromethyl)pyridine-2-carboxamide]
- fold induction at 0.3 µM (T-cell): 1.01 to 1.3
- fold induction at 1 µM (T-cell): 1.01 to 1.3
- fold induction at 4 µM (T-cell): 1.01 to 1.3
- pIC50 (Cbl-b): 6.52 to 7.00
- pKd (Cbl-b (residues 36-427)): 6.52 to 7.00

Compound: C[C@H](Cc1nncn1C)c1cccc(NC(=O)c2cccc(C(C)(C)C)n2)c1 [Compound 321, (R)-6-(Tert-butyl)-N-(3-(1-(4-methyl-4H-1,2,4-triazol-3-yl)propan-2-yl)phenyl)picolinamide]
- fold induction at 0.3 µM (T-cell): 1.01 to 1.3
- fold induction at 1 µM (T-cell): 1.01 to 1.3
- fold induction at 4 µM (T-cell): 1.01 to 1.3
- pIC50 (Cbl-b): > 7.00
- pKd (Cbl-b (residues 36-427)): 6.52 to 7.00

Compound: CC1CCc2c1n[nH]c2C(=O)Nc1cccc([C@H](C)Cc2nncn2C)c1 (stereo partly drawn) [Compound 323, 6-Methyl-N-(3-((R)-1-(4-methyl-4H-1,2,4-triazol-3-yl)propan-2-yl)phenyl)-2,4,5,6-tetrahydrocyclopenta[c]pyrazole-3-carboxamide]
- fold induction at 0.3 µM (T-cell): < 1
- fold induction at 1 µM (T-cell): < 1
- fold induction at 4 µM (T-cell): 1.01 to 1.3
- pIC50 (Cbl-b): 6.52 to 7.00
- pKd (Cbl-b (residues 36-427)): 6.52 to 7.00

Compound: Cc1cc(C(=O)Nc2cccc([C@H](C)Cc3nocc3C)c2)nc(C2CC2)n1 [Compound 330, (R)-2-cyclopropyl-6-methyl-N-(3-(1-(4-methylisoxazol-3-yl)propan-2-yl)phenyl)pyrimidine-4-carboxamide]
- fold induction at 0.3 µM (T-cell): 1.01 to 1.3
- fold induction at 1 µM (T-cell): 1.01 to 1.3
- fold induction at 4 µM (T-cell): 1.01 to 1.3
- pIC50 (Cbl-b): > 7.00
- pKd (Cbl-b (residues 36-427)): 6.00 to 6.52

Compound: C[C@H](Cc1nncn1C)c1cc(NC2COC2)nc(N2Cc3c(cccc3C(F)(F)F)C2=O)c1 [Compound 352, 2-{4-[(2R)-1-(4-methyl-4H-1,2,4-triazol-3-yl)propan-2-yl]-6-[(oxetan-3-yl)amino]pyridin-2-yl}-4-(trifluoromethyl)-2,3-dihydro-1H-isoindol-1-one]
- fold induction at 0.3 µM (T-cell): 1.01 to 1.3
- fold induction at 1 µM (T-cell): 1.01 to 1.3
- fold induction at 4 µM (T-cell): 1.31 to 1.5
- pIC50 (Cbl-b): > 7.00
- pKd (Cbl-b (residues 36-427)): 6.52 to 7.00

Compound: CC(C)Nc1cc([C@H](C)Cc2nncn2C)cc(N2Cc3c(cccc3C(F)(F)F)C2=O)n1 [Compound 353, 2-{4-[(2R)-1-(4-methyl-4H-1,2,4-triazol-3-yl)propan-2-yl]-6-[(propan-2-yl)amino]pyridin-2-yl}-4-(trifluoromethyl)-2,3-dihydro-1H-isoindol-1-one]
- fold induction at 0.3 µM (T-cell): 1.01 to 1.3
- fold induction at 1 µM (T-cell): 1.01 to 1.3
- fold induction at 4 µM (T-cell): 1.31 to 1.5
- pIC50 (Cbl-b): > 7.00
- pKd (Cbl-b (residues 36-427)): > 7.00

Compound: CCOc1cc([C@H](C)Cc2nncn2C)cc(N2Cc3c(cccc3C(F)(F)F)C2=O)n1 [Compound 358, (R)-2-(6-ethoxy-4-(1-(4-methyl-4H-1,2,4-triazol-3-yl)propan-2-yl)pyridin-2-yl)-4-(trifluoromethyl)isoindolin-1-one]
- fold induction at 0.3 µM (T-cell): 1.01 to 1.3
- fold induction at 1 µM (T-cell): 1.31 to 1.5
- fold induction at 4 µM (T-cell): 1.31 to 1.5
- pIC50 (Cbl-b): > 7.00
- pKd (Cbl-b (residues 36-427)): > 7.00
